Data published in US6635642B1, “PARP inhibitors, pharmaceutical compositions comprising same, and methods of using same” (Guilford Pharmaceuticals Inc., priority 1997, dated 2003).
pIC50: −log10 of the molar value.

Target: T1, purified recombinant human PARP (Homo sapiens, UniProt P09874)
T1 construct: purchased Trevigen (Gaithersburg, Md.)
Test: PARP enzyme assay ([3H]NAD incorporation, scintillation counting)
Assay type: biochemical
Details: not given
Description: The reaction was initiated by incubating the mixture at 25° C. After 15 minutes' incubation, the reaction was terminated by adding 500 microliters of ice cold 20% (w/v) trichloroacetic acid. The precipitate formed was transferred onto a glass fiber filter (Packard Unifilter-GF/B) and washed three times with ethanol. After the filter was dried, the radioactivity was determined by scintillation counting.

T1 sequence (P09874 whole entry): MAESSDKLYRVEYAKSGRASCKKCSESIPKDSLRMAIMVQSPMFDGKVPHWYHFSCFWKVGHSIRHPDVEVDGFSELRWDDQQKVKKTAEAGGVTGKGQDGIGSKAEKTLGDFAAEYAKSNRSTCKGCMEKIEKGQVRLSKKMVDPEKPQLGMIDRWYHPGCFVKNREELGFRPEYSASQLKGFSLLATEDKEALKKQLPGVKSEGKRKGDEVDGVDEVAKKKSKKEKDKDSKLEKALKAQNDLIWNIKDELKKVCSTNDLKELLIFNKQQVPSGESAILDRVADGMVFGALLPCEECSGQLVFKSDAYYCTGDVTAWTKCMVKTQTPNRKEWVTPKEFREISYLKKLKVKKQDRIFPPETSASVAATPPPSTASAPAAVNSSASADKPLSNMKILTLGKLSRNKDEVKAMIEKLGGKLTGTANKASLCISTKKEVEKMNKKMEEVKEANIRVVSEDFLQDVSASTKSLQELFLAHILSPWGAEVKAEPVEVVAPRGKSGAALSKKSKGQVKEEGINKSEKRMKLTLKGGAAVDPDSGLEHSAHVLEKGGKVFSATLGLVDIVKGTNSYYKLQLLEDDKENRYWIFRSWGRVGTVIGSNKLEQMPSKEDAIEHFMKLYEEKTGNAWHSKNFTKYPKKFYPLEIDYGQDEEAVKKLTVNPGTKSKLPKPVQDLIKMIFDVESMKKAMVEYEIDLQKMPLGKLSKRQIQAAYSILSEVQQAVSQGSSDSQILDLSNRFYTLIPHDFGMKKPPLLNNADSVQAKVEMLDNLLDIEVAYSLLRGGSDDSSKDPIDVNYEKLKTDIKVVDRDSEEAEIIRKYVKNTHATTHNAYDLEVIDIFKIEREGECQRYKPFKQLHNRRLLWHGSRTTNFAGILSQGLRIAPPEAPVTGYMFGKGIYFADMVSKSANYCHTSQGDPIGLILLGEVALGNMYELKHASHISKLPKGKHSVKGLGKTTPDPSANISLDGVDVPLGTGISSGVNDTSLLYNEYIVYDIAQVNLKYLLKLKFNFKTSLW

**Q.** With `O=C1NCc2cccc3cccc1c23` as the compound, how does the pIC50 read?
**A.** The pIC50 was 6.27.

**Q.** With `Nc1ccc2c3c(cccc13)C(=O)NC2=O` as the compound, how does the pIC50 read?
**A.** Its pIC50 is 7.05.

**Q.** With `O=C1NCCc2c(OCCCCN3CCCCC3)cccc21` [drawing 52] as the compound, how does the pIC50 read?
**A.** The pIC50 was 5.72.

Same assay, conditions: PARP inhibition; unit given as uM; read-out: Approximate IC50's

**Q.** With `O=c1[nH]c(-c2ccccc2)cc2ccccc12` as the compound, how does the IC50 read?
**A.** Its IC50 is 1.3 µM.

**Q.** With `O=C1NCC([N+](=O)[O-])c2ccccc21` (stereo not shown) as the compound, how does the IC50 read?
**A.** The IC50 was 1.6 µM.

**Q.** With `O=c1[nH]ccc2c([N+](=O)[O-])cccc12` as the compound, how does the IC50 read?
**A.** Its IC50 is 3.4 µM.

**Q.** For `NC(=O)c1cccc2cccc(C(=O)O)c12` [drawing 17], which IC50 is on record?
**A.** The IC50 was 0.25 µM.

Same assay, conditions: PARP inhibition; unit inferred; read-out: Approximate IC50's

**Q.** With `O=C1CNC(=O)c2cc(Cl)ccc2N1` as the compound, how does the pIC50 read?
**A.** Its pIC50 is 5.80.

**Q.** With `COC(=O)c1c[nH]c(=O)c2ccccc12` as the compound, how does the pIC50 read?
**A.** Its pIC50 is 5.96.

**Q.** With `O=C1NC(=O)c2cc(O)cc3cccc1c23` as the compound, how does the pIC50 read?
**A.** The pIC50 was 6.09.

**Q.** With `Nc1ccc2c(c1)-c1n[nH]c(=O)c3cccc(c13)O2` as the compound, how does the pIC50 read?
**A.** Its pIC50 is 7.34.

**Q.** With `CN(C)c1ccc2c(c1)[nH]c(=O)c1ccccc12` as the compound, how does the pIC50 read?
**A.** Its pIC50 is 6.51.

**Q.** With `O=C1NCC2c3ccccc3Oc3cccc1c32` (stereo not shown) as the compound, how does the pIC50 read?
**A.** Its pIC50 is 6.70.

**Q.** With `O=c1[nH]nc2c3c(cccc13)-c1ccccc1-2` as the compound, how does the pIC50 read?
**A.** The pIC50 was 6.85.

**Q.** With `O=c1[nH]nc2c3c(cccc13)Oc1ccc([N+](=O)[O-])cc1-2` as the compound, how does the pIC50 read?
**A.** The pIC50 was 7.21.

**Q.** With `O=C1NC(=O)c2ccc(Cl)c3cccc1c23` as the compound, how does the pIC50 read?
**A.** The pIC50 was 6.34.

**Q.** With `O=C1NCC(c2ccccc2)Oc2ccccc21` (stereo not shown) as the compound, how does the pIC50 read?
**A.** Its pIC50 is 5.72.

**Q.** With `NC(=O)c1cccc2cccc(C(=O)O)c12` [drawing 59] as the compound, how does the pIC50 read?
**A.** Its pIC50 is 6.60.

**Q.** With `O=C(O)c1cccc2[nH]c(=O)c3ccccc3c12` as the compound, how does the pIC50 read?
**A.** The pIC50 was 5.29.

**Q.** With `O=c1[nH]nc2c3c(cccc13)Oc1ccccc1-2` as the compound, how does the pIC50 read?
**A.** The pIC50 was 7.10.

**Q.** With `O=c1[nH]nc2c3c(cccc13)-c1ccc([N+](=O)[O-])cc1-2` as the compound, how does the pIC50 read?
**A.** The pIC50 was 7.25.

**Q.** With `O=c1[nH]nc(CN2CCN(c3ccc(Cl)cc3)CC2)c2ccccc12` as the compound, how does the pIC50 read?
**A.** The pIC50 was 5.89.

**Q.** With `O=c1[nH]nc(-c2ccc(Cl)cc2)c2ccccc12` as the compound, how does the pIC50 read?
**A.** Its pIC50 is 6.44.

**Q.** With `O=c1[nH]nc2c3c(cccc13)Sc1ccccc1-2` as the compound, how does the pIC50 read?
**A.** The pIC50 was 6.96.

**Q.** With `CN(C)c1ccc(-c2n[nH]c(=O)c3ccccc23)cc1[N+](=O)[O-]` as the compound, how does the pIC50 read?
**A.** Its pIC50 is 6.17.

**Q.** With `O=c1[nH]c2cc([N+](=O)[O-])ccc2c2ccccc12` as the compound, how does the pIC50 read?
**A.** The pIC50 was 6.80.

**Q.** With `O=C1NC(=O)c2ccc(S(=O)(=O)O)c3cccc1c23` as the compound, how does the pIC50 read?
**A.** Its pIC50 is 5.40.

**Q.** With `Nc1cccc2c1[nH]c(=O)c1ccccc12` as the compound, how does the pIC50 read?
**A.** The pIC50 was 6.12.

**Q.** With `O=c1[nH]cc(Br)c2c(O)cccc12` as the compound, how does the pIC50 read?
**A.** Its pIC50 is 6.22.

**Q.** With `O=c1[nH]nc(CN2CCN(c3ccccc3)CC2)c2ccccc12` as the compound, how does the pIC50 read?
**A.** The pIC50 was 5.40.

**Q.** With `O=c1[nH]nc(-c2ccc(N3CCCCC3)c([N+](=O)[O-])c2)c2ccccc12` as the compound, how does the pIC50 read?
**A.** Its pIC50 is 6.52.

**Q.** With `O=C1NC(=O)c2ccc(SCCO)c3cccc1c23` as the compound, how does the pIC50 read?
**A.** The pIC50 was 5.55.

**Q.** With `Nc1ccc2c(c1)-c1n[nH]c(=O)c3cccc-2c13` as the compound, how does the pIC50 read?
**A.** Its pIC50 is 7.17.

**Q.** With `CN(C)c1ccc(-c2n[nH]c(=O)c3ccccc23)cc1N` as the compound, how does the pIC50 read?
**A.** Its pIC50 is 6.66.

**Q.** With `O=c1[nH]nc2c3c(cccc13)CCc1ccccc1-2` as the compound, how does the pIC50 read?
**A.** The pIC50 was 6.40.

**Q.** With `Nc1cccc2[nH]c(=O)c3ccccc3c12` as the compound, how does the pIC50 read?
**A.** Its pIC50 is 7.00.

Same assay, conditions: PARP inhibition; unit μM; read-out: Approximate IC50's

**Q.** With `O=c1[nH]c2ccccc2c2ccccc12` as the compound, how does the IC50 read?
**A.** The IC50 was 5.2 µM.

**Q.** Which IC50 does the source give for `Nc1ccc2c(c1)[nH]c(=O)c1ccccc12` here?
**A.** Its IC50 is 4 µM.

**Q.** With `O=c1[nH]c2cc3ccccc3cc2c2ccccc12` as the compound, how does the IC50 read?
**A.** The IC50 was 100 µM.

**Q.** Which IC50 does the source give for `O=c1[nH]c2cc(F)ccc2c2ccccc12` here?
**A.** Its IC50 is 0.2 µM.

**Q.** For `O=c1[nH]c2ccc(Br)cc2c2ccccc12`, which IC50 is on record?
**A.** Its IC50 is 1.1 µM.

**Q.** Which IC50 does the source give for `O=c1[nH]c2ccc([N+](=O)[O-])cc2c2ccccc12` here?
**A.** Its IC50 is 0.9 µM.

**Q.** Which IC50 does the source give for `O=c1[nH]c2ccc(Cl)cc2c2ccccc12` here?
**A.** The IC50 was 0.7 µM.

System: male Long-Evans rats
Test: Focal cerebral ischemia (right distal MCA cauterization with bilateral temporary CCA occlusion), infarct volume by TTC staining
Details: in vivo administration, focal cerebral ischemia model in the rat
Description: Focal cerebral ischemia was produced by cauterization of the right distal MCA (middle cerebral artery) with bilateral temporary common carotid artery occlusion in male Long-Evans rats for 90 minutes. All procedures performed on the animals were approved by the University Institutional Animal Care and Use Committee of the University of Pennsylvania. A total of 42 rats (weights: 230-340 g) obtained from Charles River were used in this study. The animals fasted overnight with free access to water prior to the surgical procedure.
Two hours prior to MCA occlusion, varying amounts (control, n=14; 5 mg/kg, n=7; 10 mg/kg, n=7; 20 mg/kg, n=7; and 40 mg/kg, n=7) of the compound, 3,4-dihydro-5-[4-(1-piperidinyl)-butoxy]-1(2H)-isoquinolinone (“DPQ”) were dissolved in dimethyl sulfoxide (DMSO) using a sonicator. […]
Two hours after MCA occlusion, the animals were given the same doses of the PARP inhibitor as in the pre-treatment. […] To avoid artifacts due to edema, the-damaged area was calculated by subtracting the area of the normal tissue in the hemisphere ipsilateral to the stroke from the area of the hemisphere contralateral to the stroke, by the method of Swanson et al., “A Semiautomated Method for Measuring Brain Infarct Volume”, J. Cereb. […] The total volume of infarction was calculated by summation of the damaged volume of the brain slices.

**Q.** Which “effect on infarct volume, overall” value does the source give for `O=C1NCCc2c(OCCCCN3CCCCC3)cccc21` [DPQ, 3,4-dihydro-5-[4-(1-piperidinyl)-butoxy]-1(2H)-isoquinolinone] here?
**A.** Its value is “substantial reduction in infarct volume”.

System: human fibroblast cells lines (either W138 or BJ cells)
Test: Extending proliferative capacity and lifespan of cells
Assay type: cell-based
Details: 10 uM; untreated cells stop dividing after about 40 days
Description: At the time of subdivision, the media is aspirated, and the cells rinsed with phosphate buffer saline (PBS) and then trypsinized. The cells are counted with a Coulter counter and plated at a density of 10^5 cells per cm^2 in 6-well tissue culture plates in DMEM/199 medium supplemented with 10% bovine calf serum and varying amounts (0.10 uM, and 1 mM: from a 100×stock solution in DMEM/M199 medium) of a PARP inhibitor of Formula I as disclosed herein. This process is repeated every 7 days until the cell appear to stop dividing. The untreated (control) cells reach senescence and stop dividing after about 40 days in culture. […] The cells treated with 1 mM 3-AB will still divide after 60 days in culture.

**Q.** Which “effect on lifespan of the cells” value does the source give for `NC(=O)c1cccc(N)c1` [Compound 3-AB, 3-aminobenzamide] here?
**A.** The value was “little or no effect”.

Same assay, conditions: 100 uM; untreated cells stop dividing after about 40 days

**Q.** For `NC(=O)c1cccc(N)c1` [Compound 3-AB, 3-aminobenzamide], which “effect on lifespan of the cells” value is on record?
**A.** The value was “lengthen the lifespan of the cells”.

Same assay, conditions: 1 mM; untreated cells stop dividing after about 40 days

**Q.** With `NC(=O)c1cccc(N)c1` [Compound 3-AB, 3-aminobenzamide] as the compound, how does the “effect on lifespan and proliferative capacity of the cells” value read?
**A.** The value was “dramatically increases the lifespan and proliferative capacity of the cells”.

**Q.** And the “time in culture at which cells still divide” value?
**A.** The value was greater than 60 days.

System: rabbits
Test: not given
Details: 1 mg/kg single injection; cited from earlier work

**Q.** For `Oc1cccc2c(O)nccc12` [1,5-dihydroxyisoquinoline], which reduced infarct size is on record?
**A.** The reduced infarct size was 38-48%.

Same assay, conditions: 10 mg/kg single injection one minute before occlusion or before reperfusion; cited from earlier work

**Q.** With `NC(=O)c1cccc(N)c1` [Compound 3-AB, 3-aminobenzamide] as the compound, how does the “reductions in infarct size in the heart” value read?
**A.** Its value is 32-42%.

System: rats
Test: not given
Details: trinitrobenzene sulfonic acid in 50% ethanol; cited from earlier work

**Q.** With `NC(=O)c1cccc(N)c1` [Compound 3-AB, 3-aminobenzamide] as the compound, how does the “inflammatory response in colitis” value read?
**A.** The value was “reduced the inflammatory response”.

System: not given
Test: not given
Details: in vivo; cited from earlier work

**Q.** Which “delayed, NO-mediated vascular failure in endotoxic shock” value does the source give for `NC(=O)c1cccnc1` [nicotinamide] here?
**A.** Its value is “protects against delayed, NO-mediated vascular failure”.
